Results reported in PubChem BioAssay AID2305 (GlaxoSmithKline (GSK), 2010).

The compounds below were run on P. falciparum 3D7 growth, pLDH absorbance (assay: P. falciparum 3D7 growth inhibition, dose response, strain 3D7 (AID 2305)).
In the case of `CN(c1ccc(NC(=O)Nc2cc(C(F)(F)F)ccc2F)cc1)c1ccnc(NCCN2CCOCC2)n1`, the IC50 is reported as 510 nM. Compound `C=CCOc1ccccc1CNCC(O)c1cc(Br)cs1` (centres undefined) has an IC50 of 330 nM. In the case of `COc1ccc2c(ccc3c2ncc2c(=O)n(-c4ccccc4)[nH]c23)c1`, the IC50 is reported as 520 nM. In the case of `O=C(/C=C/c1ccc(Cl)c(Cl)c1)NCCCCCN1CCC(C(=O)Nc2ccc(Cl)c(Cl)c2)CC1`, the IC50 is reported as 640 nM. Compound `COc1ccc2nccc([C@@H](O)CN3CCC(NC(=O)/C=C/c4c[nH]c5c(C)cccc45)CC3)c2c1` has an IC50 of 130 nM. With `NC1CCN(Cc2cccc(-c3cccc(-c4nc5ccccc5[nH]4)c3)c2)C1` (centres undefined) the IC50 was 790 nM. `CCCCCCNC(=O)C1Cc2c([nH]c3ccccc23)C2(CCN(CCc3ccccc3)CC2)N1` (centres undefined) showed an IC50 of 1140 nM. Work on `O=C(Nc1cccc(-c2cccc(-c3nc4ccc(C(F)(F)F)cc4[nH]3)c2)c1)c1ccc(=O)[nH]n1` yielded an IC50 of 660 nM. In the case of `Cc1cccc(C(O)CNc2ccnc(Nc3cccc(-c4csc(C)n4)c3)n2)c1` (centres undefined), the IC50 is reported as 680 nM. For `COc1ccc2ncc(F)c(CCN3[C@@H]4CC[C@H]3CC(NCc3ccc5c(c3)OCCO5)C4)c2n1` (some centres undefined), the IC50 was 230 nM. `CC(C)c1ccc(NC(=O)c2ccc(CN3CCCN(Cc4cccc(Cl)c4)CC3)cc2)cc1` gave an IC50 of 1160 nM. In the case of `O=C(N[C@H]1CCN(Cc2ccc(OC3CCN(Cc4ccccc4)CC3)c(Cl)c2)C1)c1ccc(Cl)c(Cl)c1`, the IC50 is reported as 810 nM. `O=C1c2ccccc2CCC1CCN1CC=C(c2c[nH]c3ccccc23)CC1` (centres undefined) showed an IC50 of 700 nM. `CC(C)NCc1cccc(-c2cccc(-c3nc4ccc(F)cc4[nH]3)c2)c1` gave an IC50 of 280 nM. For `CC(C)C(=O)n1ncc2c3c(N)nc(N)nc3ccc21`, the IC50 was 1030 nM. `COc1cc(Cc2cnc(N)nc2N)ccc1OCc1ccc(-c2csnn2)cc1` was tested, and the IC50 was 630 nM. For `COc1cc(NC2=NS(=O)(=O)c3cc(Cl)ccc3N2C)cc(OC)c1OC`, the IC50 was 420 nM. In the case of `O=C(NCC1Cc2cc(Oc3ccccc3)ccc2O1)c1ccc([N+](=O)[O-])o1` (centres undefined), the IC50 is reported as 920 nM. `O=c1cc(NCCCNCc2cccc3c2OC(F)(F)O3)[nH]c2ccccc12` was tested, and the IC50 was 950 nM. Work on `COc1ccccc1CCNc1nc(C)cc(N[C@@H](Cc2ccccc2)C(=O)NCCCOC(C)C)n1` yielded an IC50 of 860 nM. Compound `Cc1ccc(O)cc1Nc1ccnc2cc(-c3cccc(CNCCS(C)(=O)=O)c3)ccc12` has an IC50 of 840 nM. Work on `COc1cc(Nc2ccnc3cc(-c4ccccn4)ccc23)cc(OC)c1OC` yielded an IC50 of 910 nM. `CC[C@H]1CN2CC[C@H]1C[C@@H]2[C@@H](O)c1ccnc2ccccc12` was tested, and the IC50 was 280 nM. `CN(Cc1cc(C(F)(F)F)cc(C(F)(F)F)c1)C(=O)C(Cc1ccc(F)cc1)C1CCCNC1` (centres undefined) gave an IC50 of 1540 nM. `COc1c(C2CCN(CCCCNC(=O)c3cc(-c4ccc(Cl)cc4)sc3C)CC2)ccc2c1CCCC2` showed an IC50 of 630 nM. For `CCCc1cn2c3c(cc(C(=O)N[C@@H](Cc4ccccc4)[C@H](O)CNC4CCCCC4)cc13)N(C)S(=O)(=O)CC2`, the IC50 was 70 nM. `CCN(CC)CCNC(=O)/C(=C/C=C/c1cc2cc(Cl)c(Cl)cc2[nH]1)OC` was tested, and the IC50 was 930 nM. For `Cc1c(C)c2c(c(C)c1O)CC[C@@](C)(C(=O)NC1CCC(CN3CCC(c4c[nH]c5ccccc45)CC3)CC1)O2` (some centres undefined), the IC50 was 960 nM. `CC[C@H]1CN2CC[C@H]1C[C@H]2[C@H](O)c1cc(-c2ccc(C)cc2)nc2ccc(OC)cc12` was tested, and the IC50 was 110 nM. `NC(=O)c1ccsc1NC(=O)CNC(c1ccc(F)cc1)c1cccs1` (centres undefined) was tested, and the IC50 was 950 nM. Compound `CCOc1ccc(-c2nonc2NC(=O)c2ccco2)cc1OCC` has an IC50 of 750 nM. Compound `O=S(=O)(NCCN1CCCC1)c1ccc(-c2cccc(CNCc3ccccc3)c2)s1` has an IC50 of 810 nM. With `COc1ccccc1-c1csc(C(=O)NCC2CCN(Cc3ccc(C(C)(C)C)cc3)C2)c1` (centres undefined) the IC50 was 1110 nM. `O=C(Nc1ccc(CN2CCOCC2)cc1)c1ccc(-c2ccc(Br)cc2)o1` showed an IC50 of 1120 nM. `Cc1csc(NC(=O)c2cn(-c3ccccc3)nc2-c2cccs2)n1` gave an IC50 of 910 nM. Work on `Cc1ccc(NC(=O)Nc2ccc(Cn3ncc(N4CCCNCC4)c(Cl)c3=O)cc2)cc1` yielded an IC50 of 920 nM. `CON(CCCN(C)C)C(=N)N` gave an IC50 of 1080 nM. `CC(C)c1ccc(CN2CCC(CNC(=O)c3cc(-c4cccc(C(F)(F)F)c4)cs3)C2)cc1` (centres undefined) was tested, and the IC50 was 910 nM. `O=c1cc(NCCCNCc2cc(Cl)cc(Cl)c2OCc2ccccc2)[nH]c2ccccc12` was tested, and the IC50 was 1030 nM. For `Cc1ccc(-c2nc(N3CCN(C(=O)c4ccco4)CC3)c3ccccc3n2)cc1`, the IC50 was 970 nM. In the case of `O=C(Nc1cccc(OC2CCN(Cc3ccccc3)CC2)c1)Nc1cccc([N+](=O)[O-])c1`, the IC50 is reported as 780 nM. `CCc1cn2c3c(cc(C(=O)N[C@@H](Cc4cccc(F)c4)[C@H](O)CNC4CCCCC4)cc13)N(C)S(=O)(=O)CC2` was tested, and the IC50 was 30 nM. In the case of `COc1ccc(CNCc2ccccc2)cc1-c1ccc(S(=O)(=O)NCCN2CCCC2)cc1`, the IC50 is reported as 820 nM. `Nc1cccc(CNCc2cccc(-c3csc(-c4nc5ccccc5[nH]4)c3)c2)c1` was tested, and the IC50 was 680 nM. For `CCCCCN(C(=O)Nc1cc(C(F)(F)F)cc(C(F)(F)F)c1)C(C)c1nc2ccccc2c(=O)n1CC` (centres undefined), the IC50 was 790 nM. `COc1ccc2nccc(NCC3(O)CCC(NCc4ccc5c(n4)NC(=O)CS5)CC3)c2n1` (centres undefined) gave an IC50 of 690 nM. With `COc1ccc2ncc(F)c(CCN3CCC(NCc4cc(OC)c5c(c4)OCCO5)CC3)c2n1` the IC50 was 570 nM. `COc1ccc(NC(=O)Nc2nc(-c3ccc(Cl)c(C)c3)cs2)cc1N1CCN(C)CC1` gave an IC50 of 270 nM. For `O=S(=O)(c1csc2ccccc12)N(CCC(O)(C(F)(F)F)C(F)(F)F)Cc1cccc(O)c1`, the IC50 was 360 nM.
